# Assay results taken from patent US12649750B2, “Macrocyclic compounds, compositions, and methods of using thereof” (Sionna Therapeutics Inc., priority 2022, dated 2026).
# Legend:
# CFTR = target: T1, CFTR (Homo sapiens, UniProt P13569, DEL508-508); assay: TECC24 AUC fold over DMSO @10 μM, CFTR-mediated transepithelial chloride transport in CF-HBE cells; assay type: cell-based; details: test agent AUC divided by DMSO vehicle AUC, primary CF-HBE cells, ΔF508 homozygous donor, 48 hours incubation
# T1 construct: Primary human bronchial epithelial cells from a ΔF508 homozygous CF donor; host or cells: primary human bronchial epithelial cells (CF-HBE), ΔF508 homozygous donor
# T1 sequence (P13569 with tags, fused parts or gaps DEL508-508): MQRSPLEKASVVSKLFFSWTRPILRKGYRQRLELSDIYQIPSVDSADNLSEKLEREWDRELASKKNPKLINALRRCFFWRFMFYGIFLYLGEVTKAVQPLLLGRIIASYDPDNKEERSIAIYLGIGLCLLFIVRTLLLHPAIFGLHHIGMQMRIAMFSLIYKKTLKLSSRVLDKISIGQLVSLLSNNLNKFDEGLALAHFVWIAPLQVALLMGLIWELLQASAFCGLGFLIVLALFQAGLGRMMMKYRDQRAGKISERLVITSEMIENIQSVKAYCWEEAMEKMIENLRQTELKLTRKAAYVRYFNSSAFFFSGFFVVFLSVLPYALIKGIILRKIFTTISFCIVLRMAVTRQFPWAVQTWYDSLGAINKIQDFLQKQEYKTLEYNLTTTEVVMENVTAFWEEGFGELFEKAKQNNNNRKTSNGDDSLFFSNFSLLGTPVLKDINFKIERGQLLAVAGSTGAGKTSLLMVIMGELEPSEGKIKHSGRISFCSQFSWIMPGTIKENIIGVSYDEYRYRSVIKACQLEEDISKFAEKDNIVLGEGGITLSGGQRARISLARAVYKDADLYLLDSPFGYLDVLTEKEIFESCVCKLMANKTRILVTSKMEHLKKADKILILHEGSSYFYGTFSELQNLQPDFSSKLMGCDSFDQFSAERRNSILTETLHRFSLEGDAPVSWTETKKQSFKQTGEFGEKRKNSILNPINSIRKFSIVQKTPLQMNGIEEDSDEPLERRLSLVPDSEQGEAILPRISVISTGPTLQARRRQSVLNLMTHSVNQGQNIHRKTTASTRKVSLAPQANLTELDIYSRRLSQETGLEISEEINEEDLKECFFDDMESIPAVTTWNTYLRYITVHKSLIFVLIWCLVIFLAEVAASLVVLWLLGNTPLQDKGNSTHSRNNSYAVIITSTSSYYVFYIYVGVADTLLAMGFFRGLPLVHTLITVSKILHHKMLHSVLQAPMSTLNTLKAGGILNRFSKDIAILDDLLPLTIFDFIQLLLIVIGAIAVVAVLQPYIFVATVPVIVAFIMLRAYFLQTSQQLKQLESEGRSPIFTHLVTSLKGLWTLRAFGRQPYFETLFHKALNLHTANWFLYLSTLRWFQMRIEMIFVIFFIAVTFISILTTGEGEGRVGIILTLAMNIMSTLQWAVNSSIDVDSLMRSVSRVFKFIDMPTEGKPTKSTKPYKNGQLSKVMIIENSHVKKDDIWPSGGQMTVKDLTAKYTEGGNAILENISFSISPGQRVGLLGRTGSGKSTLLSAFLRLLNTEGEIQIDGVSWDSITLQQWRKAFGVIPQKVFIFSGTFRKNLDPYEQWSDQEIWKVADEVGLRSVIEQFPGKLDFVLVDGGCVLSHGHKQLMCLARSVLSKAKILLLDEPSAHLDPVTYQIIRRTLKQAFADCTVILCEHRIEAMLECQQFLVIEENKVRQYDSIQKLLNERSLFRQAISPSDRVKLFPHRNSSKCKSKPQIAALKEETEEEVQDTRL
# Outline: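 Primary ΔF508-homozygous CF bronchial epithelial cells on inserts were incubated 48 h at 36.5 °C with compound in IL-13-containing medium. VT and TEER were then recorded in current-clamp mode (pH 7.4 HEPES bath) with benzamil 10 μM, forskolin 10 μM, then CFTR inhibitor-172 20 μM. The IEQ AUC between forskolin and inhibitor was divided by vehicle AUC.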
# NBD1 = target: T2, NBD1 (Homo sapiens, UniProt P13569); assay: Aggregation analysis using differential static light scattering (DSLS), thermal stability of NBD1 (ΔTagg); assay type: binding; details: ΔTagg versus DMSO control, NBD1 0.2 mg/ml
# T2 construct: Purified recombinant NBD1 was produced using previously described methods; made in house
# T2 sequence (P13569 423-646 limits assumed): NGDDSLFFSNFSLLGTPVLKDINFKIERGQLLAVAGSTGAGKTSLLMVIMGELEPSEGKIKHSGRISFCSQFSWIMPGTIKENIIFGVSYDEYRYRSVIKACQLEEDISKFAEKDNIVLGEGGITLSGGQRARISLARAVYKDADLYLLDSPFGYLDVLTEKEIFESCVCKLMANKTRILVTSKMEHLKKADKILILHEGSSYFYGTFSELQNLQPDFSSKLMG
# Outline: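 Stabilisation is measured as the shift in aggregation onset of recombinant NBD1 (0.2 mg/ml, 2 mM ATP, 5 mM MgCl2, pH7.6) exposed to compound. Images are taken every 0.5° C. while heating at 1° C. per minute, and the inflection-point Tagg is corrected by the DMSO mean.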
smiles,measurement,setting,value
"CCn1nc2nc1-c1cc(ccc1F)Oc1c(F)cc3[nH]ccc3c1CCS(=O)(=O)CC(C)(C)CCCC2(C)c1cccc(CCC(=O)O)c1 (single isomer, unassigned) [Compound 91A, 3-[3-(3-ethyl-22,28-difluoro-6,10,10-trimethyl-12,12-dioxo-24-oxa-12lambda6-thia-3,4,19,30-tetrazapentacyclo[23.3.1.12,5.015,23.016,20]triaconta-1(29),2(30),4,15,17,20,22,25,27-nonaen-6-yl)phenyl]propanoic Acid]","TECC (AUC, 10 μM)",CFTR,A (a TECC value less than 12 is marked “A”)
same,DSLS 3D (100 μM ΔT),NBD1,C (a value greater than 10 °C and less than or equal to 25 °C is marked “C”)
"CCn1nc2nc1-c1cc(ccc1F)Oc1c(F)cc3[nH]ccc3c1CCS(=O)(=O)CC(C)(C)CCCC2(C)c1cccc(CCC(=O)O)c1 (single isomer, unassigned) [Compound 91B, 3-[3-(3-ethyl-22,28-difluoro-6,10,10-trimethyl-12,12-dioxo-24-oxa-12lambda6-thia-3,4,19,30-tetrazapentacyclo[23.3.1.12,5.015,23.016,20]triaconta-1(29),2(30),4,15,17,20,22,25,27-nonaen-6-yl)phenyl]propanoic Acid]","TECC (AUC, 10 μM)",CFTR,A (a TECC value less than 12 is marked “A”)
same,DSLS 3D (100 μM ΔT),NBD1,A (an ΔTagg value less than or equal to 5 °C is marked “A”)
"Cn1nc2nc1-c1cccc(c1)Oc1c(F)cc3[nH]ccc3c1CCS(=O)(=O)CC(C)(C)CCCC2(C)c1cccc(CCC(=O)O)c1 (single isomer, unassigned) [Compound 95A, 3-[3-(22-fluoro-3,6,10,10-tetramethyl-12,12-dioxo-24-oxa-12λ6-thia-3,4,19,30-tetrazapentacyclo[23.3.1.12,5.015,23.016,20]triaconta-1(29),2(30),4,15,17,20,22,25,27-nonaen-6-yl)phenyl]propanoic Acid]","TECC (AUC, 10 μM)",CFTR,A (a TECC value less than 12 is marked “A”)
same,DSLS 3D (100 μM ΔT),NBD1,A (an ΔTagg value less than or equal to 5 °C is marked “A”)
"Cn1nc2nc1-c1cccc(c1)Oc1c(F)cc3[nH]ccc3c1CCS(=O)(=O)CC(C)(C)CCCC2(C)c1cccc(CCC(=O)O)c1 (single isomer, unassigned) [Compound 95B, 3-[3-(22-fluoro-3,6,10,10-tetramethyl-12,12-dioxo-24-oxa-12λ6-thia-3,4,19,30-tetrazapentacyclo[23.3.1.12,5.015,23.016,20]triaconta-1(29),2(30),4,15,17,20,22,25,27-nonaen-6-yl)phenyl]propanoic Acid]","TECC (AUC, 10 μM)",CFTR,A (a TECC value less than 12 is marked “A”)
same,DSLS 3D (100 μM ΔT),NBD1,C (a value greater than 10 °C and less than or equal to 25 °C is marked “C”)
"[2H]C([2H])([2H])C1(c2cccc(CCC(=O)O)c2)CCCC(C)(C)CS(=O)(=O)CCc2c(c(F)cc3[nH]ccc23)Oc2ccc(F)c(c2)-c2nc1nn2C (single isomer, unassigned) [Compound 96A, 3-[3-[22,28-difluoro-3,10,10-trimethyl-12,12-dioxo-6-(trideuteriomethyl)-24-oxa-12lambda6-thia-3,4,19,30-tetrazapentacyclo-[23.3.1.12,5.015,23.016,20]triaconta-1(29),2(30),4,15,17,20,22,25,27-nonaen-6-yl]phenyl]propanoic Acid]","TECC (AUC, 10 μM)",CFTR,A (a TECC value less than 12 is marked “A”)
same,DSLS 3D (100 μM ΔT),NBD1,C (a value greater than 10 °C and less than or equal to 25 °C is marked “C”)
"[2H]C([2H])([2H])C1(c2cccc(CCC(=O)O)c2)CCCC(C)(C)CS(=O)(=O)CCc2c(c(F)cc3[nH]ccc23)Oc2ccc(F)c(c2)-c2nc1nn2C (single isomer, unassigned) [Compound 96B, 3-[3-[22,28-difluoro-3,10,10-trimethyl-12,12-dioxo-6-(trideuteriomethyl)-24-oxa-12lambda6-thia-3,4,19,30-tetrazapentacyclo-[23.3.1.12,5.015,23.016,20]triaconta-1(29),2(30),4,15,17,20,22,25,27-nonaen-6-yl]phenyl]propanoic Acid]","TECC (AUC, 10 μM)",CFTR,A (a TECC value less than 12 is marked “A”)
same,DSLS 3D (100 μM ΔT),NBD1,A (an ΔTagg value less than or equal to 5 °C is marked “A”)
"Cn1nc2nc1-c1cc(ccc1F)Oc1c(F)cc3[nH]ccc3c1CCS(=O)(=O)CC(C)(C)CCCC2(C)c1cccc(CC(O)CO)c1 (single isomer, unassigned) [Compound 97A, 3-[3-(22,28-difluoro-3,6,10,10-tetramethyl-12,12-dioxo-24-oxa-12λ6-thia-3,4,19,30-tetrazapentacyclo[23.3.1.12,5.015,23.016,20]triaconta-1(29),2(30),4,15,17,20,22,25,27-nonaen-6-yl)phenyl]propane-1,2-diol]","TECC (AUC, 10 μM)",CFTR,A (a TECC value less than 12 is marked “A”)
same,DSLS 3D (100 μM ΔT),NBD1,C (a value greater than 10 °C and less than or equal to 25 °C is marked “C”)
"Cn1nc2nc1-c1cc(ccc1F)Oc1c(F)cc3[nH]ccc3c1CCS(=O)(=O)CC(C)(C)CCCC2(C)c1cccc(CC(O)CO)c1 (single isomer, unassigned) [Compound 97B, 3-[3-(22,28-difluoro-3,6,10,10-tetramethyl-12,12-dioxo-24-oxa-12λ6-thia-3,4,19,30-tetrazapentacyclo[23.3.1.12,5.015,23.016,20]triaconta-1(29),2(30),4,15,17,20,22,25,27-nonaen-6-yl)phenyl]propane-1,2-diol]","TECC (AUC, 10 μM)",CFTR,A (a TECC value less than 12 is marked “A”)
same,DSLS 3D (100 μM ΔT),NBD1,A (an ΔTagg value less than or equal to 5 °C is marked “A”)
"[2H]C([2H])([2H])C1(c2cccc(CCC(=O)O)c2)CCCC(C([2H])([2H])[2H])(C([2H])([2H])[2H])CS(=O)(=O)CCc2c(c(F)cc3[nH]ccc23)Oc2ccc(F)c(c2)-c2nc1nn2C (single isomer, unassigned) [Compound 98A, 3-[3-[22,28-difluoro-3-methyl-12,12-dioxo-6,10,10-tris(trideuteriomethyl)-24-oxa-12lambda6-thia-3,4,19,30-tetrazapentacyclo-[23.3.1.12,5.015,23.016,20]triaconta-1(29),2(30),4,15,17,20,22,25,27-nonaen-6-yl]phenyl]propanoic acid]","TECC (AUC, 10 μM)",CFTR,B (a value between 12-20 is marked “B”)
same,DSLS 3D (100 μM ΔT),NBD1,C (a value greater than 10 °C and less than or equal to 25 °C is marked “C”)
"[2H]C([2H])([2H])C1(c2cccc(CCC(=O)O)c2)CCCC(C([2H])([2H])[2H])(C([2H])([2H])[2H])CS(=O)(=O)CCc2c(c(F)cc3[nH]ccc23)Oc2ccc(F)c(c2)-c2nc1nn2C (single isomer, unassigned) [Compound 98B, 3-[3-[22,28-difluoro-3-methyl-12,12-dioxo-6,10,10-tris(trideuteriomethyl)-24-oxa-12lambda6-thia-3,4,19,30-tetrazapentacyclo-[23.3.1.12,5.015,23.016,20]triaconta-1(29),2(30),4,15,17,20,22,25,27-nonaen-6-yl]phenyl]propanoic acid]","TECC (AUC, 10 μM)",CFTR,C (a value between 20 and 80 is marked “C”)
same,DSLS 3D (100 μM ΔT),NBD1,C (a value greater than 10 °C and less than or equal to 25 °C is marked “C”)
"Cn1nc2nc1-c1cc(ccc1F)Oc1c(F)cc3[nH]ccc3c1Cc1ccn(n1)CCS(=O)(=O)CCC2(C)c1cccc(CCC(=O)O)c1 (single isomer, unassigned) [Compound 100A, 3-[3-(24,30-difluoro-3,6-dimethyl-9,9-dioxo-26-oxa-9λ6-thia-3,4,12,21,32,33-hexazahexacyclo[25.3.1.12,5.112,15.017,25.018,22]tritriaconta-1(31),2(33),4,13,15(32),17,19,22,24,27,29-undecaen-6-yl)phenyl]propanoic Acid]","TECC (AUC, 10 μM)",CFTR,A (a TECC value less than 12 is marked “A”)
same,DSLS 3D (100 μM ΔT),NBD1,C (a value greater than 10 °C and less than or equal to 25 °C is marked “C”)
"Cn1nc2nc1-c1cc(ccc1F)Oc1c(F)cc3[nH]ccc3c1Cc1ccn(n1)CCS(=O)(=O)CCC2(C)c1cccc(CCC(=O)O)c1 (single isomer, unassigned) [Compound 100B, 3-[3-(24,30-difluoro-3,6-dimethyl-9,9-dioxo-26-oxa-9λ6-thia-3,4,12,21,32,33-hexazahexacyclo[25.3.1.12,5.112,15.017,25.018,22]tritriaconta-1(31),2(33),4,13,15(32),17,19,22,24,27,29-undecaen-6-yl)phenyl]propanoic Acid]","TECC (AUC, 10 μM)",CFTR,A (a TECC value less than 12 is marked “A”)
same,DSLS 3D (100 μM ΔT),NBD1,A (an ΔTagg value less than or equal to 5 °C is marked “A”)
"Cc1c2nnn1Cc1c(c(F)cc3[nH]ccc13)Oc1ccc(F)c(c1)-c1nc(nn1C)C(C)(c1cccc(CCC(=O)O)c1)CCS(=O)(=O)C2 (single isomer, unassigned) [Compound 101A, 3-[3-(23,29-difluoro-3,6,31-trimethyl-9,9-dioxo-25-oxa-9lambda6-thia-3,4,12,13,14,20,32-heptazahexacyclo[24.3.1.12,5.111,14.016,24.017,21]-dotriaconta-1(30),2(32),4,11(31),12,16,18,21,23,26,28-undecaen-6-yl)phenyl]propanoic Acid]","TECC (AUC, 10 μM)",CFTR,A (a TECC value less than 12 is marked “A”)
same,DSLS 3D (100 μM ΔT),NBD1,A (an ΔTagg value less than or equal to 5 °C is marked “A”)
